Key:
Type in all cases: cell-based, human
hMSC [1] = experiment: hMSC proliferation (normalized cell number C72/C0) on SAM array spots presenting GRGDSP; details: hMSCs, 72 hours
Description: (§1) For cell assays on SAM arrays, HUVECs or hMSCs were removed from plastic culture plates using a 0.05% trypsin solution, resuspended in media, and seeded onto SAM arrays in sterile polystyrene Petri dishes. After allowing cells to attach for ˜1 hour in a humidified incubator at 37° C. and 5% CO2, arrays were dipped in warm media to remove loosely attached cells and then transferred to a rectangular multidish (Thermo Scientific/Nunc, Rochester, N.Y.) with warm media and imaged ˜4 hours later serving as “0 hr.” For the initial time point and subsequent time-lapse imaging, arrays were placed on an incubated stage and each array spot was imaged every 15 minutes for 72 hours. […]
(§2) Relative cell attachment at 0 hrs was quantified by counting the number of attached cells per spot and normalizing cell numbers to maximal attachment conditions. Normalized cell number was calculated by dividing the number of cells per spot at 72 hours (C72) to the cell number observed on the same spot at 0 hrs (C0). Relative proliferation was determined by dividing normalized cell numbers at 72 hours by the maximum average normalized cell number observed across GRGDSP density conditions. Similarly, relative spreading was determined by dividing projected cell areas to the maximum average projected cell area observed across GRGDSP density conditions. […]

hMSC [2] = experiment: hMSC spreading (projected cell area) on SAM array spots presenting GRGDSP; details: hMSCs
Description: as §1, §2

HUVEC [3] = experiment: HUVEC migration (single cell tracking) on SAM array spots presenting GRGDSP; details: HUVECs
Description: as §1, §2

HUVEC [4] = experiment: HUVEC proliferation (Click-it EdU) in response to soluble morphogens on SAM arrays; details: increased immobilized GRGDSP density
Description: Specifically, SAM array spots presenting mixed ligands were prepared as described above. SAM arrays presenting varied ligand densities of covalently immobilized VEGF receptor-binding peptide ([sequence], here referred to as “VR-BP”; SEQ ID NO:17) and varied ligand densities of the fibronectin-derived cell adhesion peptide (GRGDSP, SEQ ID NO:18) were used to probe for changes in HUVEC attachment, proliferation and tubulogenesis. Control over individual ligand density was achieved by mixing scrambled VR-BP and mutant GRGESP (SEQ ID NO:19) with functional VR-BP or GRGDSP (SEQ ID NO:18) peptides, respectively. Therefore, in a typical SAM array, SAMs were locally formed within spots using an alkanethiolate mixture of 94% HS—C11-EG3-OH and 6% HS—C11-EG6-COOH to create substrates with a total of 6% carboxylate groups for peptide conjugation. Next, to create a spot presenting 5% GRGDSP (SEQ ID NO:18) and 1% VR-BP, a 300 μM peptide solution with 250 μM GRGDSP (SEQ ID NO:18) and 50 μM VR-BP was used during peptide conjugation. Likewise, to create a spot presenting 2.5% GRGDSP (SEQ ID NO:18) and 0.1% VR-BP, a 300 μM peptide solution with 125 μM GRGDSP (SEQ ID NO:18), 125 μM GRGESP (SEQ ID NO:19), 5 μM VR-BP and 45 μM scrambled peptide was used during peptide conjugation. In this manner, the amount of active ligand could be varied between spots while holding the total ligand content constant.
Passage 2 HUVECs were expanded at low cell density (less than 70% confluence) on tissue culture polystyrene to no more than 14 population doublings. During HUVEC expansion, cells were cultured in medium 199 (m199, Mediatech, Manassas, Va.) containing 1% penicillin/streptomycin (Hyclone, Logan, Utah) and supplemented with Clonetics EGM-2 BullitKit (Lonza Walkersville, Inc., Walkersville, Md.) containing Hydrocortisone, hFGF-B, VEGF, R3-IGF-1, Ascorbic Acid, Heparin, FBS, hEGF, GA-1000 growth supplements. […]

HUVEC [5] = experiment: HUVEC proliferation (normalized cell number C72/C0) on SAM array spots presenting GRGDSP; details: HUVECs, 72 hours
Description: as §1, §2

hMSC [6] = experiment: hMSC migration (single cell tracking) on SAM array spots presenting GRGDSP; details: hMSCs, each ligand density condition (0.06%-5%)
Description: as §1, §2

HUVEC [7] = experiment: HUVEC spreading (projected cell area) on SAM array spots presenting GRGDSP
Description: For cell assays on SAM arrays, HUVECs or hMSCs were removed from plastic culture plates using a 0.05% trypsin solution, resuspended in media, and seeded onto SAM arrays in sterile polystyrene Petri dishes. After allowing cells to attach for ˜1 hour in a humidified incubator at 37° C. and 5% CO2, arrays were dipped in warm media to remove loosely attached cells and then transferred to a rectangular multidish (Thermo Scientific/Nunc, Rochester, N.Y.) with warm media and imaged ˜4 hours later serving as “0 hr.” For the initial time point and subsequent time-lapse imaging, arrays were placed on an incubated stage and each array spot was imaged every 15 minutes for 72 hours. Furthermore, it is important to point out that all cell experiments for comparison between HUVECs and hMSCs were run simultaneously.
For immunocytochemistry, at 24 and 72 hour time points during the time-lapse experiment, staining for the actin cytoskeleton and focal adhesion markers was performed as directed by the manufacturer (Catalog No. FAK100, Millipore, Billerica, Mass.). […]
Relative cell attachment at 0 hrs was quantified by counting the number of attached cells per spot and normalizing cell numbers to maximal attachment conditions. Normalized cell number was calculated by dividing the number of cells per spot at 72 hours (C72) to the cell number observed on the same spot at 0 hrs (C0). Relative proliferation was determined by dividing normalized cell numbers at 72 hours by the maximum average normalized cell number observed across GRGDSP density conditions. Similarly, relative spreading was determined by dividing projected cell areas to the maximum average projected cell area observed across GRGDSP density conditions. […] For each spot, average cell projected area was calculated by dividing the thresholded actin staining (red channel) by the total number of nuclei in the same spot. […]
Specifically, SAM arrays were prepared as described above. […] Cell spreading was determined by culturing HUVECs and hMSCs for 24 hours and 72 hours and analyzed by cell staining and quantified by measuring projected cell area. […]

Substance: GRGDSP
- maximum normalized cell number (C72/C0) (hMSC [1]; across GRGDSP densities): 6.1
- proliferation (hMSC [1]; below 0.06% GRGDSP): no proliferation
- maximal projected cell area (hMSC [2]; 24 hrs, SAM spots with 1.6% and 5% GRGDSP): greater than 4000 μm^2
- change in projected cell area from 24 to 72 hrs (hMSC [2]; across several GRGDSP densities): slight decreases
- fraction of migrating cells (HUVEC [3]; high GRGDSP densities): virtually no cells migrating
- fraction of migrating cells (HUVEC [3]; lower GRGDSP densities): over 30%
- HUVEC proliferation dependence on ligand density (HUVEC [4]): increased proliferation
- maximum normalized cell number (C72/C0) (HUVEC [5]; across GRGDSP densities): 1.6
- proliferation (HUVEC [5]; below 0.06% GRGDSP): no proliferation
- fraction of migrating cells (hMSC [6]): greater than 37%
- maximal HUVEC spreading (projected cell area) (HUVEC [7]; 72 hours, SAM spots with 1.67% and 5% GRGDSP): 6000 μm^2
- maximal projected cell area (HUVEC [7]; HUVECs, 24 hrs, SAM spots with 1.6% and 5% GRGDSP): greater than 4000 μm^2
- change in projected cell area from 24 to 72 hrs (HUVEC [7]; HUVECs, all GRGDSP densities above 0.06%): increasing their projected cell area

Reference: patent US8642516B2, “Chemically-defined arrays for screening cell-substrate interactions” (Wisconsin Alumni Research Foundation, priority 2012, dated 2014)
